# Laboratory results as given in patent US20250228762A1, “COSMETIC COMPOSITION COMPRISING LUTEIN AND A POLYSACCHARIDE” (ALGAKTIV, S.L., priority 2022, published 2025).
# Key:
# Assay type in all cases: cell-based
# RARalpha = assay: RAR alpha agonist assay (SelectScreen GeneBLAzer, UAS-bla HEK 293T)
# Protocol: (§1) An agonist assay for RAR was performed by SelectScreen® Cell-Based Nuclear Receptor Profiling Service of Life Technologies. In this assay, an engineered cell line (UAS-bla HEK 293T) expressing RARalpha, RARbeta or RAR gamma is used to test the action of lutein. GeneBLAzer® technology, based on mammalian-optimized Beta-lactamase reporter gene (bla) combined with a FRET-enabled substrate, provides the assay with a sensitive detection method. […] The plate is incubated for 16-24 hours at 37° C./5% CO2 in a humidified incubator. 8 μL of 1 μM Substrate Loading Solution is added to each well and the plate is incubated for 2 hours at room temperature. The plate is read on a fluorescence plate reader.
# RARbeta = assay: RAR beta agonist assay (SelectScreen GeneBLAzer, UAS-bla HEK 293T)
# Protocol: as §1
# RAR gamma = RAR gamma agonist assay (SelectScreen GeneBLAzer, UAS-bla HEK 293T)
# Protocol: as §1
# [1] = at any concentration below 3.2 μM
SMILES,agonist effect on RAR alpha (RARalpha; [1]),concentrations at which a specific RAR-beta partial agonist effect could be measured (RARbeta; RAR-beta-UAS-bla HEK 293T),RAR-beta activation (RARbeta; at 3.16 μM) [%],agonist effect on RAR gamma (RAR gamma; [1]),"EC50 (RARalpha; RAR-alpha-UAS-bla HEK 293T, FIG. 2, read-out: EC50 (control agonist, RAR alpha)) [pM]","EC50 (RARbeta; RAR-beta-UAS-bla HEK 293T, FIG. 3, read-out: EC50 (control agonist, RAR beta)) [pM]","EC50 (RAR gamma; RAR-gamma-UAS-bla HEK 293T, FIG. 4, read-out: EC50 (control agonist, RAR gamma)) [pM]"
"CC1=C[C@H](O)CC(C)(C)[C@H]1/C=C/C(C)=C/C=C/C(C)=C/C=C/C=C(C)/C=C/C=C(C)/C=C/C1=C(C)C[C@@H](O)CC1(C)C [Lutein, (1R,4R)-4-{(1E,3E,5E,7E,9E,11E,13E,15E,17E)-18-[(4R)-4-Hydroxy-2,6,6-trimethylcyclohex-1-en-1-yl]-3,7,12,16-tetramethyloctadeca-1,3,5,7,9,11,13,15,17-nonaen-1-yl}-3,5,5-trimethylcyclohex-2-en-1-ol]",No agonist effect,above 100 nm,~40,No agonist effect,–,–,–
"CC1=C(/C=C/C(C)=C/C=C/C(C)=C/C(=O)O)C(C)(C)CCC1 [ATRA, reference compound]",–,–,–,–,[…],460,131
